Data: patent publication EP0490410B1, “TXA2 Receptor and gene encoding the same” (SHIONOGI SEIYAKU KABUSHIKI KAISHA, priority 1990, dated 1992)

Tests used:
[1] = target: T1, human TXA2 receptor encoded by placenta cDNA clone HPL (SEQ ID NO: 1), expressed in COS-7 cells (Homo sapiens, UniProt P21731); experiment: Competition for [3H]S-145 binding to membranes of transfected COS-7 cells; settings: 1.25 nM [^3H]S-145 and various concentrations of ligands
T1 construct: expressed in transfected cells; host or cells: COS-7 cells (CDM8 vector), membranes
T1 sequence (P21731 1-343): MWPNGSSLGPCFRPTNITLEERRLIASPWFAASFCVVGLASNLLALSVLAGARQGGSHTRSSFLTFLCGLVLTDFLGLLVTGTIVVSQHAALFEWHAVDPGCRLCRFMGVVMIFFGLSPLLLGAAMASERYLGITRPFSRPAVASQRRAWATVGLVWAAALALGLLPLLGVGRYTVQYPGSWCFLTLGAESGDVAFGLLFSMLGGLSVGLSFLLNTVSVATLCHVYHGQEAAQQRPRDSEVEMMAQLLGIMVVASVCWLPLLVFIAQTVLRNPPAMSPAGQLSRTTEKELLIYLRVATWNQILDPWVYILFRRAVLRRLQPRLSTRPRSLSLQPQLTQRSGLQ
Description: To establish that HPL encodes the TXA2 receptor, the present inventors subcloned a 2.0 kb fragment of HPL into an eukaryotic expression vector, CDM8 (Seed, B., Nature 329, 840-842 (1987)), and transfected the plasmid into COS-7 cells. […] Specificity of this binding was analysed with several TXA2 analogues as well as various prostanoids.
HPL was digested with BamHI to remove most of the 5'-untranslated region, and its 2.0 kb fragment was inserted between the HindIII-XbaI site of eukaryotic expression vector CDM8 (Seed, B., Nature […], 840-842 (1987)). A modified DEAE-dextran method (Ausbel, F. M. et al, Current Protocols in Molecular Biology. 9.2.5 (Wiley, New York, 1989)) was used for the transfection of COS-7 cells. At 60 h after the transfection, cells were collected and membranes were prepared by homogenizing the cells according to the method of Ausbel, F. M. et al., as described above in the presence of 1 mM benzamidine and 0.3 mM PMSF.

[2] = system: human TXA2 receptor encoded by HPL (SEQ ID NO: 1), expressed in Xenopus oocytes; experiment: Electrophysiological response (two-micropipette voltage clamp) of Xenopus oocytes injected with in vitro transcribed mRNA of HPL; assay type: cell-based; settings: for response evoked (inward current): ligand added to the bath at 1 µM, oocytes 48 hours after mRNA injection
Description: The TXA2 receptor stimulation results in PI turnover and Ca^2+ mobilization. The present inventors, therefore, expressed the clone in Xenopus oocyte where agonist stimulation linked to PI turnover opens endogenous Ca^2+-dependent Cl^- channel. […] The mRNA synthesized in vitro from the 2.0 kb BamHI subclone of HPL was injected into Xenopus oocytes and electrophysiological responses were measured after 48 hours. A TXA2 agonist, STA2, and other PGs dissolved in ethanol at 100 µM were added to the bath at 1 µM concentration, and responses of oocytes were recorded by the two-micropipette voltage clamp method as described in Masu, Y. et al., Nature 329, 836-838 (1987).

Compound	competition for the [^3H]S-145 binding [1]	response evoked (inward current) [2]	concentration as low as which the response was seen ([2]; oocytes injected with mRNA of HPL) [nM]
O=C(O)CCCC=CCC1C2CCC(C2)C1NS(=O)(=O)c1ccccc1 (stereo not drawn) [S-145]	competed for the [^3H]S-145 binding	–	–
CCCCCC(O)C=CC1CC2CC(S2)C1CC=CCCCC(=O)O (stereo not drawn) [STA2]	competed for the [^3H]S-145 binding	evoked a fast inward current of a few hundred nA followed by a slow phase of current of low amplitude	1
CCCCC[C@H](O)/C=C/[C@@H]1[C@@H](C/C=C\CCCC(=O)O)[C@@H](O)C[C@H]1O [PGF2 α]	–	did not evoke response	–
PGD2	–	did not evoke response	–
CCCCC[C@H](O)/C=C/[C@H]1[C@H](O)CC(=O)[C@@H]1CCCCCCC(=O)O [PGE1]	–	did not evoke response	–
CCCCC[C@H](O)/C=C/[C@H]1[C@H](O)CC(=O)[C@@H]1C/C=C\CCCC(=O)O [E2]	–	did not evoke response	–
CCCCCC(O)C=CC1C(O)CC2OC(=CCCCC(=O)O)CC21 (stereo not drawn) [I2]	–	did not evoke response	–
CC1(C)[C@H]2C[C@H](NC(=O)[C@H](O)C3CCCC3)[C@@H](C/C=C\CCCC(=O)O)[C@@H]1C2 [ONO-3708]	competed for the [^3H]S-145 binding	–	–
CCCCC[C@H](O)/C=C/[C@H]1OC(O)C[C@H](O)[C@@H]1C/C=C\CCCC(=O)O (stereo partly drawn) [TXB2]	at least two orders of magnitude less active in the competition	did not evoke response	–
